Results: patent US20080076750A1, “Azetidinone Derivatives and Methods of Use Thereof” (priority 2006, published 2008)
Read-outs that look alike come from different tables or passages of the source.

Experiments:
[1] = molecular target: NPC1L1 (Rattus norvegicus, UniProt Q6T3U3); experiment: NPC1L1 Binding Assay, rat; details: competition with BODIPY-labeled glucuronidated ezetimibe
[2] = molecular target: T1, human NPC1L1 (Homo sapiens, UniProt Q9UHC9); experiment: NPC1L1 Binding Assay, human; details: HEK-293 cells expressing human NPC1L1; competition with 250 nM BODIPY-labeled glucuronidated ezetimibe, 4 h at 37° C.
T1 construct: expressed in transfected cells; host or cells: HEK-293 (geneticin selection)
T1 sequence (Q9UHC9 22-1359): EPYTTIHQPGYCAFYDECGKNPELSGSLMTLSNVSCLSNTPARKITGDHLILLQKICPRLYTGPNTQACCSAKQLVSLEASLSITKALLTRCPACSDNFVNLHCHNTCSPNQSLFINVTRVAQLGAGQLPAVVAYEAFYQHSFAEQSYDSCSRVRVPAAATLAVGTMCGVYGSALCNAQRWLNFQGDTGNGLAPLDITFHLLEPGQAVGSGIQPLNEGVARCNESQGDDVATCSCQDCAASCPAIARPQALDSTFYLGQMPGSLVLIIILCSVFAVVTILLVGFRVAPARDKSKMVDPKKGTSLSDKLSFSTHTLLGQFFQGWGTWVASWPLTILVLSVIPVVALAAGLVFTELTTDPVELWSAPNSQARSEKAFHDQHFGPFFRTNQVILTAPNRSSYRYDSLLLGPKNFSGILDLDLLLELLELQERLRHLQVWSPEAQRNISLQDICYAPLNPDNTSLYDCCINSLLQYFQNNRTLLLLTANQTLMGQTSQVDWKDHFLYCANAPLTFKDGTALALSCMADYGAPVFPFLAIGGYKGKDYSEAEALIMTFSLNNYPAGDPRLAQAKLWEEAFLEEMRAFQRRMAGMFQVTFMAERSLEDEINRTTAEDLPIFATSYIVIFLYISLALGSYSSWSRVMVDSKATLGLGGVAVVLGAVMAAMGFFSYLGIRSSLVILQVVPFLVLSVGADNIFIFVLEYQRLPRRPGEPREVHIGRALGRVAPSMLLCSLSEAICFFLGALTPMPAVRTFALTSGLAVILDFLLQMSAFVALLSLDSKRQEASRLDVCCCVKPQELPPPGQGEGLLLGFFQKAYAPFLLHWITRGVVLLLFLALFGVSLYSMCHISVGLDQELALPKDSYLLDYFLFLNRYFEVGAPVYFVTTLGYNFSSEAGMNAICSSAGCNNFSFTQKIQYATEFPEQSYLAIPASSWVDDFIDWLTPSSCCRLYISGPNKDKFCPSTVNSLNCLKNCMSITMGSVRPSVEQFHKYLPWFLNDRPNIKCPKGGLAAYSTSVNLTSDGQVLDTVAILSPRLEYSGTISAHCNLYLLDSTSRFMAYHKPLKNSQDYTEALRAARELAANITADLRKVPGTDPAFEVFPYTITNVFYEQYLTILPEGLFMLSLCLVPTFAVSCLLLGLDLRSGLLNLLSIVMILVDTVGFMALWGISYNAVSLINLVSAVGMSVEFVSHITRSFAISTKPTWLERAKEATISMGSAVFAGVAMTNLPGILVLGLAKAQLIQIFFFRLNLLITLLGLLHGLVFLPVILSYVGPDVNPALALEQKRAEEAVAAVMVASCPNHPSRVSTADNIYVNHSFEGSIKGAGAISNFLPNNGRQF
Method: HEK-293 cells expressing human NPC1L1 were plated into 384-well black/clear plates (BD Biosciences, Bedford Mass.) for binding experiments the following day. Cell growth media (DMEM, 10% fetal calf serum, 1 mg/mL geneticin, 100 Units/mL penicillin) was aspirated. Cell growth media ([…]) containing 250 nM BODIPY-labeled glucuronidated ezetimibe was added to each well. Cell growth media ([…] containing the indicated concentration of compound was then added to the wells unlabeled glucuronidated ezetimibe […]) was used to determine nonspecific binding. The binding reaction was allowed to proceed for 4 h at 37° C. Subsequently the cell growth media was aspired and the cells washed once with PBS. The remaining fluorescent labeled glucuronidated ezetimibe bound to the cells was quantified using a FlexStation plate reader (Molecular Devices, Sunnyvale Calif.) to measure fluorescence intensity. Ki values were determined from competition binding curves (n=4 for each point) using Prism and Activity Base software.

[3] = molecular target: T2, TRPV1 (Homo sapiens, UniProt Q8NER1); experiment: TRPV1 Screening Assay (FLIPR); format: cell-based; details: HEK293-TetOFF-TRPV1, PMA, read-out: VR1 flipr PMA IC50
T2 construct: expressed in transfected cells; host or cells: HEK293-Tet-OFF
T2 sequence (Q8NER1 whole entry, species assumed): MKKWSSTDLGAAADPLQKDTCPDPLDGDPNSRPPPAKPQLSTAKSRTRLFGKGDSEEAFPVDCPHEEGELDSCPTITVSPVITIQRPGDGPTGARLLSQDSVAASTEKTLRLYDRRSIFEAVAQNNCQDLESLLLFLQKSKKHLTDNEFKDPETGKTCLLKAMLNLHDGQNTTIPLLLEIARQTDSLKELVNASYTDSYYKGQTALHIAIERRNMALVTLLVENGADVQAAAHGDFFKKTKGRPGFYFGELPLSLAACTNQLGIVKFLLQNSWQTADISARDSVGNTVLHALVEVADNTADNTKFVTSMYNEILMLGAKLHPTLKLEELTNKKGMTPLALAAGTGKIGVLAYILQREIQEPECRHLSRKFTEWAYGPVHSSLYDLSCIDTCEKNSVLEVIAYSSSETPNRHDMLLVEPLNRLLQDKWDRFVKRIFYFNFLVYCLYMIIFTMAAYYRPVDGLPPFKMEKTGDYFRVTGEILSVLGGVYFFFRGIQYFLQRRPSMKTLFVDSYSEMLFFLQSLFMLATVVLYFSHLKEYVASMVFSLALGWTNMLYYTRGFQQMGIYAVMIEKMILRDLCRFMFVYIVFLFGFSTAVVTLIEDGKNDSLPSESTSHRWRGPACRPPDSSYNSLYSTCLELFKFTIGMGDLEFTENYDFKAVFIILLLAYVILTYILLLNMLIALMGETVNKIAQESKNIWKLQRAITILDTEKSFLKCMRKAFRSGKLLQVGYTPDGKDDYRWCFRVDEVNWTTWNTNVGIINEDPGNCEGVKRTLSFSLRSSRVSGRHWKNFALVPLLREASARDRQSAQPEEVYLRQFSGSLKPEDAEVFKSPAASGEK

[4] = molecular target: T2, TRPV1; experiment: TRPV1 Screening Assay (FLIPR); format: cell-based; details: HEK293-TetOFF-TRPV1, capsaicin (50 nM final), read-out: VR1 flipr CAPSAICIN IC50
Description: • 1) Cell line: HEK293-Tet^OFF-TRPV1 • 2) Media: MEM (Invitrogen) • 3) 10% Tet-FBS (Clontech #8630-1) • 4) Fungizone (Gibco #15290-018 (100×)) • 5) Penn/Strep (Gibco #15140-122 (100×)) • 6) Geneticin (Gibco #10131-027 (100×)) • 7) Hygromycin (Clontech #8057-1) • 8) Doxycycline (Clontech #8634-1) • 9) Trypsin/EDTA (Gibco #25200-056) • 10) 100 mm cell culture plates (Falcon #3003) • 11) 96-well poly-D-lysine plates (Fisher #08-774-256) • 12) Hank's Balanced Salt Solution (HBSS) (GIBCO #14025-092) • 13) HEPES Buffer (GIBCO #15630-080) • 14) 30% BSA (Research Organics #1334A) • 15) Probenecid (Sigma P-8761) • 16) Fluo-4, AM (50 μg) (Molecular robes F-23917) • 17) Pluronic F-127 20% (Molecular Probes P-3000). • 18) capsazepine (Sigma C-191) • 19) capsaicin (Sigma M-2028) • 20) compound plates (NUNC #442587) • 21) black pipet tips 96-well FLIPR (Robbins Scientific 1043-24-0) • 22) Additional reagents available from Fisher: methanol, DMSO, NaOH Reagent Preparation: 1) Cells: HEK293-Tet^OFF-TRPV11
• and Doxycycline 2.5 μg/mL final (from a 1000× stock in PBS) • Cells must be fed and/or split every 2-3 days (to maintain transcriptional repression with Doxycycline). • Must be split no more than 1:5 (50-75% confluency) to maintain growth and viability. • Grown on regular tissue culture plates (e.g. Falcon 3003-100 mm) • SpliT-cells via Trypsin/EDTA: incubate with trypsin at room temperature no longer than 5 min (HEK293 cells have a tendency to ball up if over trypsinized). • Two days prior to assay, the cells are split into 96-well plates in cell media in the absence of doxycycline at a concentration of 40,000 cells/well in a volume of 200 μL, 2) FLIPR buffer is prepared fresh:
Add 5 mL of Probenecid Solution, prepared as follows: 710 mg of probenecid (Sigma P-8761) is solubilized in 5 mL of 1 N NaOH, 5 mL of above buffer s added for final volume of 10 mL (of which 5 mL goes back into FLIPR buffer)
Combine 42 μL of dye mixture with 11 mL of FLIPR buffer/96-well plate.
Stock solution of 0.1 M capsaicin is prepared in MeOH (50 mg+1.6 mL MeOH). Store 50 μL aliquots at −80° C.
For assay: • a) Dilute stock by adding 0.8 μL into 1 mL of MeOH (final=80 μM). • b) Add 50 μL of diluted stock to 20 mL of FLIPR buffer (final=0.2 μM) • c) Agonist solution is added 150 μL/well to 96-well plate. • d) Final agonist concentration on cells will be 50 nM. […] Laser is adjusted upwards for an average signal≧10,000/well and less than 10% variability. 7) Compound addition conditions are as follows: • FLIPR setup (dual sequence parameters): • Sequence 1: • First interval 1 sec/60 counts • Second interval 6 sec/50 counts • Fluid addition=50 μL • Pipettor=110 μL • Dispense Speed=30 μL/sec • Sequence 2: • Second interval 1 sec/60 counts • Second interval 6 sec/40 counts • Fluid addition=50 μL • Pipettor height=140 μL • Dispense Speed=50 μL/sec Data Analysis:
1) Data from both additions is reported as Max-Min for each well

Work on `Cc1c(Cl)cccc1NC(=O)N1CCC2(CC1)C(=O)N(c1ccccc1)C2c1ccccc1` (stereo not shown) [drawing 435] yielded a Ki [1] of 3620 nM and a Ki [2] of 3770 nM.

In the case of `Cc1ccc(C)c(NC(=O)N2CCC3(CC2)C(=O)N(c2ccccc2)C3c2ccccc2)c1` (stereo not shown), the Ki [1] is reported as 3500 nM and the Ki [2] is reported as 3900 nM.

Molecule `O=C(Nc1cccc(Cl)c1Cl)N1CCC2(CC1)C(=O)N(c1ccccc1)C2c1ccccc1` (stereo not shown) has a Ki [1] of 4950 nM and a Ki [2] of 6620 nM.

Molecule `Cc1cccc(Cl)c1NC(=O)N1CCC2(CC1)C(=O)N(c1ccccc1)C2c1ccccc1` (stereo not shown) [drawing 434] has a Ki [1] of 1170 nM and a Ki [2] of 2320 nM.

`O=C(Nc1c(F)cccc1F)N1CCC2(CC1)C(=O)N(c1ccccc1)C2c1ccccc1` (stereo not shown) showed a Ki [1] of 6630 nM and a Ki [2] of 9870 nM.

For `O=C(Nc1ccc(C(F)(F)F)cc1)N1CCC2(CC1)C(=O)N(c1cncnc1)C2c1ccccc1` (stereo not shown), the IC50 [3] was 210 nM and the IC50 [4] was 184 nM.

`Cc1cccc(Cl)c1NC(=O)N1CCC2(CC1)C(=O)N(c1ccccc1)C2c1ccccc1` (stereo not shown) [drawing 443] gave a Ki [1] of 1060 nM and a Ki [2] of 1010 nM.

`O=C(Nc1ccc(Oc2ccccc2)cc1)N1CCC2(CC1)C(=O)N(c1ccccc1)C2c1ccccn1` (stereo not shown) showed an IC50 [3] of 140 nM and an IC50 [4] of 259 nM.

`CC(C)c1ccc(NC(=O)N2CCC3(CC2)C(=O)N(c2cncnc2)C3c2ccccc2)cc1` (stereo not shown) gave an IC50 [3] of 155 nM and an IC50 [4] of 240 nM.

`O=C(Nc1ccc(C(F)(F)F)cc1)N1CCC2(CC1)C(=O)N(c1ccccc1)C2c1ccccn1` (stereo not shown) was tested, and the IC50 [3] was 33 nM and the IC50 [4] was 33 nM.

`CC(C)c1ccc(NC(=O)N2CCC3(CC2)C(=O)N(c2ccccc2)C3c2ccccn2)cc1` (stereo not shown) gave an IC50 [3] of 81 nM and an IC50 [4] of 70 nM.
